Assay results as given in patent publication US7067545B1, “Remedies for spinocerebellar ataxia and compositions for treating spinocerebellar ataxia” (Meiji Seika Kaisha Ltd., priority 1998, dated 2006).
Like-named read-outs stand apart in the source and are kept apart here.

Assays:
[1] = tested on: genetic mutant ataxia mice, reeler mice; assay: Effect on genetic mutant ataxia mice (reeler mice), open-field test; type: in vivo; conditions: 250 mg/kg i.p., mean ± standard error
Experimental: (§1) The open-field apparatus with a 70 cm square filed surrounded by a 15 cm high wall was used. The floor of the field was marked out into 49 equal grids (each grid 10 cm×10 cm). At 30 minutes after administration of drug intraperitoneally into mice, each mouse was placed in the field and was monitored for behavior for 30 minutes. Observed items were as follows. Numbers of crossing lines of the grids by mouse were set as “movement score” and numbers of slipping the hindlimbs were set as “falling score”. Each score was measured simultaneously. Ratio of both scores (falling score/movement score) is expressed as “falling index”.
Genetic mutant ataxia mice, reeler mice (Heckroth, J. A. et al. J. Comp. Neurol., 279, 546-555, 1989 and Hamburgh, Dev. Biol., 8, 165-185, 1963) were purchased from Jackson Laboratory (Bar Harbor, Me., USA). Homozygotes were obtained by mating of heterozygote pairs. The homozygote male mice, 6-7 weeks old, were used for the experiments.
Experimental method for evaluation of ataxia was performed as same as in example 1. In the drug administered group, D-serine ethyl ester 250 mg/kg was administered intraperitoneally. For control group, physiological saline was administered.

drug induced ataxia mice = assay: Effect on drug induced (cytosine arabinoside) ataxia mice, open-field test; type: in vivo; conditions: for Falling Index (falling score/movement score) / Movement Score: 30 min after administration, observed 30 min, mean ± standard error
Experimental: Ataxia mice prepared by repeated administration of cytosine arabinoside 50 mg/kg into male mice, 1, 2 and 3-day old, respectively, were used at 6-7-week old in the experiments (Simada, M. et al. Arch. Neurol., 32, 555-559, 1975 and Matsui, K. et al. Exp. Anim., 32, 13-19, 1983).
Improving effects of drugs on ataxia were evaluated according to the methods of Yamamoto et al. (Yamamoto and Shimizu, Eur. J. Pharmacol. 1.66, 295-297, 1989) and Matsui et al. (Matsui et al. Eur. J. Pharmacol., 254, 295-297, 1994; Neurosci. Lett., 212, 115-118, 1996) as follows.
as §1
Drugs used were D-serine ethyl ester, 10, 50 and 250 mg/kg, respectively, D-cycloserine, 2, 10 and 50 mg/kg, respectively, and L-serine ethyl ester, 250 mg/kg. Physiological saline was used as control. Each drug and saline were administered intraperitoneally.

[2] = mouse, in vivo, cited from earlier work
[3] = 50 mg/kg i.p., listed as D-Serine Ethyl ester
[4] = 250 mg/kg i.p., listed as D-Serine Ethyl ester
[5] = 10 mg/kg i.p., listed as D-Cycloserine
[6] = 50 mg/kg i.p., listed as D-Cycloserine

CCOC(=O)[C@H](N)CO [D-serine ethyl ester]
Falling Index (falling score/movement score) [1]: Improved effect on ataxia | Movement Score [1]: No effect | Falling Index (falling score/movement score) ([1]; listed as D-Serine Ethyl ester): 0.24 ± 0.05 | Movement Score ([1]; listed as D-Serine Ethyl ester): 232 ± 66 | Falling Index (falling score/movement score) (drug induced ataxia mice; 10 mg/kg i.p.): 0.88 ± 0.09 | Movement Score (drug induced ataxia mice; 10 mg/kg i.p.): 386 ± 113 | Falling Index (falling score/movement score) (drug induced ataxia mice; 50 mg/kg i.p.): Significant decrease | Movement Score (drug induced ataxia mice; 50 mg/kg i.p.): no significant effect | Falling Index (falling score/movement score) (drug induced ataxia mice; [3]): 0.66 ± 0.08 | Movement Score (drug induced ataxia mice; [3]): 366 ± 96 | Falling Index (falling score/movement score) (drug induced ataxia mice; 250 mg/kg i.p.): Significant decrease | Movement Score (drug induced ataxia mice; 250 mg/kg i.p.): no significant effect | Falling Index (falling score/movement score) (drug induced ataxia mice; [4]): 0.56 ± 0.06 | Movement Score (drug induced ataxia mice; [4]): 412 ± 99

CCOC(=O)[C@@H](N)CO [L-serine ethyl ester]
Falling Index (falling score/movement score) (drug induced ataxia mice; 250 mg/kg i.p.): No improved action on ataxia | Movement Score (drug induced ataxia mice; 250 mg/kg i.p.): 129 ± 27 | Falling Index (falling score/movement score) (drug induced ataxia mice; 250 mg/kg i.p., listed as L-Serine Ethyl ester): 0.80 ± 0.06

N[C@@H]1CON=C1O [D-cycloserine]
Falling Index (falling score/movement score) (drug induced ataxia mice; 2 mg/kg i.p.): 0.80 ± 0.07 | Movement Score (drug induced ataxia mice; 2 mg/kg i.p.): 117 ± 54 | Falling Index (falling score/movement score) (drug induced ataxia mice; 10 mg/kg i.p.): Significant decrease | Movement Score (drug induced ataxia mice; 10 mg/kg i.p.): no significant effect | Falling Index (falling score/movement score) (drug induced ataxia mice; [5]): 0.69 ± 0.09 | Movement Score (drug induced ataxia mice; [5]): 194 ± 71 | Falling Index (falling score/movement score) (drug induced ataxia mice; 50 mg/kg i.p.): Significant decrease | Movement Score (drug induced ataxia mice; 50 mg/kg i.p.): no significant effect | Falling Index (falling score/movement score) (drug induced ataxia mice; [6]): 0.62 ± 0.04 | Movement Score (drug induced ataxia mice; [6]): 286 ± 98 | improved action on ataxia (drug induced ataxia mice; below 50 mg/kg (i.p.) in mice): dose dependent manner | LD50 ([2]; ip): approx. 2,900 mg/kg | LD50 ([2]; iv): approx. 1,800 mg/kg | LD50 ([2]; po): approx. 5,300 mg/kg | LD50 ([2]; sc): approx. 2,800 mg/kg
